In patent publication US8241866B2, “Method for detection of microorganism and kit for detection of microorganism” (Morinaga Milk Industry Co., Ltd., priority 2005, dated 2012):

Columns and labels:
[1] = system: Listeria monocytogenes JCM 2873; test: Colony formation of Listeria cultured with ampicillin and gentamycin; format: cell-based; conditions: ampicillin 500 μg/ml together with gentamycin 200 μg/ml, 30° C. for 3 weeks
[2] = system: Escherichia coli DH5α; test: FCM measurement after SYTO9/PI staining of EMA-treated Escherichia coli suspensions (live, injured, dead cells); format: cell-based
[3] = system: Staphylococcus epidermidis KD strain; test: FCM measurement after SYTO9/PI staining of LP-treated and EMA-treated Staphylococcus epidermidis suspensions; format: cell-based; conditions: EMA treatment after LP treatment; 10 μl of 1000 μg/ml EMA to 1 ml, 4° C. 30 minutes, visible light 500 W 10 minutes
[4] = system: Escherichia coli (injured cells); format: cell-based; conditions: injured cells inoculated at 1.5×10^6 cfu/ml; LP treatment and EMA treatment
[5] = system: chromosomal DNA of Escherichia coli DH5α; test: Agarose gel electrophoresis of chromosomal DNA after EMA treatment, Escherichia coli; format: cell-based; parameters: key: presence of this band was indicated as (+); absence of this band was indicated as (−)
[6] = system: chromosomal DNA of Klebsiella oxytoca JCM 1665; test: Agarose gel electrophoresis of chromosomal DNA after EMA treatment, Klebsiella; format: cell-based; parameters: key: presence of this band was indicated as (+); absence of this band was indicated as (−); conditions: EMA 4° C. 30 minutes
[7] = system: chromosomal DNA of Citrobacter koseri JCM 1658; test: Agarose gel electrophoresis of chromosomal DNA after EMA treatment, Citrobacter; format: cell-based; parameters: key: presence of this band was indicated as (+); absence of this band was indicated as (−); conditions: EMA 4° C. 30 minutes
[8] = system: chromosomal DNA of Salmonella enteritidis IID 604; test: Agarose gel electrophoresis of chromosomal DNA after EMA treatment, Salmonella; format: cell-based; parameters: key: presence of this band was indicated as (+); absence of this band was indicated as (−); conditions: EMA 4° C. 30 minutes
[9] = system: contaminants in heparinized human blood; test: FCM of human blood by EMA-LNP-FP method versus LNP-FP method; format: cell-based; conditions: 10 μl of 1000 μg/ml EMA to 1 ml blood, 4° C. 5 minutes, visible light 5 minutes
Experimental: Heparinized blood (type A) was collected from a healthy human subject, and a Listeria live cell suspension of 1.8×10^8 cfu/ml was diluted 10 times with the blood. The suspension was further serially diluted with the blood to prepare blood inoculated with 1.8×10^3 to […] cfu/ml of Listeria monocytogenes (live cells). […] Then, each sample was irradiated with visible light of 500 W for 5 minutes on ice. 750 μl of physiological saline, 200 μl of a 189 U/ml lipase solution and 10 μl of a 10000 U/ml deoxyribonuclease solution was added to each sample, and the sample was maintained at 30° C. for 30 minutes. […] The total volume of the aforementioned EMA-treated blood was carefully overlaid on 2 ml of Ficoll Paque filled beforehand in a 15 ml volume polypropylene tube, and subjected to centrifugation at 100×g for 5 minutes. […] The same procedure as that of the aforementioned method (referred to as the “EMA-LNP-FP method”) was also performed in parallel except that the EMA treatment was not performed (referred to as the “LNP-FP method”) to prepare a sample for FCM measurement.

[10] = system: Mycobacterium tuberculosis H37RA; test: FCM after SYTO9/PI staining of EMA-treated Mycobacterium tuberculosis (live, injured, dead cells)
[11] = system: contaminants of somatic cells and injured cells in LTLT non-homogenized milk; test: FCM after SYTO9/PI staining of LP-treated and EMA-treated LTLT non-homogenized milk not inoculated with bacteria; conditions: LP-treated and EMA-treated (LPE-treated) LTLT non-homogenized milk not inoculated
Experimental: Each of the LTLT non-homogenized milk inoculated with Escherichia coli (live cells), LTLT non-homogenized milk inoculated with Staphylococcus epidermidis (live cells), and LTLT non-homogenized milk not inoculated with the bacteria was subjected to the same lipase treatment and proteinase K treatment (LP treatment) as well as EMA treatment as those in Example 2.
FCM measurement was performed for each of the samples prepared above (measurement time: 5 minutes) in the same manner as that in Control Example 1.

[12] = system: Mycobacterium tuberculosis H37RA; format: cell-based
[13] = system: Escherichia coli (live cells) and contaminants originated in UHT homogenized milk; format: cell-based; conditions: treatment after LP treatment, 37° C.; amsacrine 10 minutes, others 30 minutes; 7.5×10^6 cfu/ml
Excerpt: Specific procedures are as shown in a) to d) described below.

[14] = after the EMA treatment, dead cells (boiling water 12 minutes)
[15] = after the EMA treatment, injured cells (boiling water 50 seconds)
[16] = after the EMA treatment, live cells
[17] = after the EMA treatment (about 30 μg/ml, 4° C. 2.5 hours), injured cells treated with isonicotinic acid hydrazide and rifampicin

With CC1(C)S[C@@H]2[C@H](NC(=O)[C@H](N)c3ccccc3)C(=O)N2[C@H]1C(=O)O [ampicillin] the “colony formation on L agar medium” value [1] was “did not form colonies”.
With CC[n+]1c(-c2ccccc2)c2cc(N=[N+]=[N-])ccc2c2ccc(N)cc21.[Cl-] [EMA, 8-azido-3-amino-6-phenyl-5-ethylphenanthradinium chloride] the “distinction of live cells and injured cells by FCM” value ([2]; EMA treatment after LP treatment, 10 μl of 1000 μg/ml EMA to 1 ml, 4° C. 30 minutes, visible light 500 W 10 minutes) was “clearly distinguish”, the “intensity of staining with SYTO9 for injured cells” value ([2]; after the EMA treatment versus before) was “markedly decreased” and the “PI region of main distribution, dead cells” value [2, 14] was “PI(+) (The boundary value of the intensity of the staining with PI is defined to be an intensity of 2×10^2, results exceeding that value are represented as PI(+))”. The “SYTO9 region of main distribution, dead cells” value [2, 14] was “SYTO9(−) (results lower than that value are represented as SYTO9(−))”, the “PI region of main distribution, injured cells” value [2, 15] was “PI(−) (results lower than that value are represented as PI(−))” and the “SYTO9 region of main distribution, injured cells” value [2, 15] was “SYTO9(−) (results lower than that value are represented as SYTO9(−))”. For the same compound, the “PI region of main distribution, live cells” value [2, 16] was “PI(−) (results lower than that value are represented as PI(−))”, the “SYTO9 region of main distribution, live cells” value [2, 16] was “SYTO9(+) (The boundary value of the intensity of the staining with SYTO9 is defined to be an intensity of 10^3, results exceeding that value are represented as SYTO9(+))” and the “distinction of live cells and injured cells by FCM” value [3] was “the same results”. The “plotted points in the SYTO9(+)·PI(−) region suggesting the presence of live cells” value [4] was “hardly existed”, the “LL band originated in chromosomal DNA, dead cells” value ([5]; EMA-treated dead cells (FIG. 11)) was “(−)” and the “LL band originated in chromosomal DNA, injured cells” value (“LL band originated … injured cells” for short) ([5]; EMA-treated injured cells, EMA 4° C. 30 minutes) was “(−)”. The “LL band originated in chromosomal DNA, live cells” value (“LL band originated … live cells” below) ([5]; EMA-treated live cells, EMA 4° C. 30 minutes) was “(+)”, the “LL band originated … injured cells” value ([6]; EMA-treated injured cells) was “(−)” and the “LL band originated … live cells” value ([6]; EMA-treated live cells) was “(+)”. The “LL band originated … injured cells” value ([7]; EMA-treated injured cells) was “(−)”, the “LL band originated … live cells” value ([7]; EMA-treated live cells) was “(+)” and the “LL band originated … injured cells” value ([8]; EMA-treated injured cells) was “(−)”. The “LL band originated … live cells” value ([8]; EMA-treated live cells) was “(+)”, the “shift of plotted points of the contaminants corresponding to SYTO9(−)·PI(−)” value [9] was “not shifted to the left direction” and the “PI region, injured cells” value [10, 17] was “PI(−) (results lower than that value are represented as PI(−))”. The “SYTO9 region, injured cells” value [10, 17] was “SYTO9(−) (results lower than that value are represented as SYTO9(−))”, the “SYTO9 region of main distribution, dead cells” value [10, 14] was “SYTO9(+) (The boundary value of the intensity of the staining with SYTO9 is defined to be an intensity of 10^3, results exceeding that value are represented as SYTO9(+))” and the “SYTO9 intensity of the injured cells” value ([10]; by the EMA treatment) was “markedly shifted to the left direction”. The SYTO9 intensity [11] was “below 5×10^2”.
For NNC(=O)c1ccncc1 [isonicotinic acid hydrazide], the “colony formation on 7H10 medium” value [12] was “did not form colonies”.
For gentamycin, the “colony formation on L agar medium” value [1] was “did not form colonies”.
With O=C(O)c1cn(C2CC2)c2cc(N3CCNCC3)c(F)cc2c1=O [ciprofloxacin] the “separation of plotted areas of Escherichia coli (live cells) and contaminants” value (“separation” below) [13] was “clearly separated”.
Cc1c2ccncc2c(C)c2c1[nH]c1ccccc12 [ellipticine] was tested, and the “separation” value [13] was “clearly separated”.
For CC[C@@]1(O)C(=O)OCc2c1cc1n(c2=O)Cc2cc3ccccc3nc2-1 [camptothecin], the “separation” value [13] was “clearly separated”.
